{"source": "patent US11311613B2", "about": "“Development of agonist epitopes of the human papillomavirus” (priority 2016, dated 2022)", "key": {"HLA-A2 molecules": {"molecular_target": "T1, HLA-A2 molecules (Homo sapiens, UniProt P04439, D140Y/D185E/D98H/E176V/E277Q/G131W/G231S/I119V/I121R/I166T/I218V/L300P/L318F/N151K/N90K/P208A/P217A/Q86G/Q94H/R138H/R169H/T345S)", "T1 construct": "endogenous in cells; host or cells: T2A2 cells (T2 cell line expressing HLA-A2; only the column head names it)", "test": "T2A2 binding of HPV-16 E6/E7 peptides to HLA-A2", "set-up": "T2A2 Binding: unit not given here"}, "CTL (T cells)": {"tested_on": "CTL (T cells)", "test": "IFN-γ production by CTL stimulated by autologous B cells pulsed with corresponding peptide", "assay_type": "cell-based, human", "excerpt": "Autologous B cells were pulsed with each native and agonist E6 peptides to stimulate production of interferon by T cells.\nAutologous B cells were pulsed with each native and agonist E7 peptides to stimulate production of interferon by T cells."}, "[1]": {"tested_on": "CaSki cervical carcinoma cell line (HPV16 E6 and E7 positive HLA-A2 positive)", "test": "Lysis of CaSki tumor cells by peptide-specific CTLs", "assay_type": "cell-based, human", "set-up": "key to Lysis: + denotes a greater level than the native epitope; = denotes the same level as the native epitope; − denotes a lower level than the native epitope", "excerpt": "(§1) HPV-specific T cells were generated using infection of dendritic cells (DCs) with Ad-HPV followed by stimulation of the T cells with each agonist and native peptide. In particular, DCs were infected with Ad5 HPV at 20,000 MOI. Infected DCs were used to generate specific CTLs using autologous PBMC. Autologous DCs were used as APCs for three in vitro stimulations (IVS). Autologous peptide-pulsed B cells were used to re-stimulate antigen-specific CTLs for two additional IVS. CTLs were used at IVS5.\n(§2) Results are expressed in % specific lysis (SD). Effector-to-target ratio used was 25:1. CTLs were established from a normal HLA-A2 donor. CaSki is a cervical carcinoma cell line (HPV16 E6 and E7 positive HLA-A2 positive). ASPC-1 is a pancreatic cancer cell line (HPV16 E6 and E7 negative HLA-A2 negative)."}, "[2]": {"tested_on": "ASPC-1 pancreatic cancer cell line (HPV16 E6 and E7 negative HLA-A2 negative)", "test": "Lysis of ASPC-1 control cells by peptide-specific CTLs", "assay_type": "cell-based, human", "details": "CTLs at IVS5, effector-to-target ratio 25:1", "excerpt": "as §1, §2\n(§3) Results are expressed in % specific lysis (SD). Effector-to-target ratio used was 25:1. CTLs were established from a normal HLA-A2 donor. HN-4 and HN-12 cells are head and neck squamous carcinoma cell lines (HLA-A2 positive). ASPC-1 is a pancreatic cancer cell line (HPV16 E6 and E7 negative HLA-A2 negative)."}, "[3]": {"tested_on": "HN-4 head and neck squamous carcinoma cell line (HLA-A2 positive)", "test": "Lysis of HN-4 cells by peptide-specific CTLs", "assay_type": "cell-based, human", "excerpt": "as §1, §3"}, "[4]": {"tested_on": "HN-12 head and neck squamous carcinoma cell line (HLA-A2 positive)", "test": "Lysis of HN-12 cells by peptide-specific CTLs", "assay_type": "cell-based, human", "excerpt": "as §1, §3"}, "[5]": {"tested_on": "HPV-specific T cell lines", "test": "IFN-γ production by HPV-specific T cell lines stimulated with Ad5-infected human dendritic cells", "assay_type": "cell-based", "experimental": "Human DC (6 day culture in IL-4 and GM-CSF) were infected with Ad5 [E1,E2b]-HPV vector and Ad5 [E1,E2b]-Null at 1×10^5/well (24-well plate) in 0.5 ml of AIM-V. Ad5 vectors were used at 20,000 MOI for 1 hour and then 1.5 ml of AIM-V were added to each well. Infected DCs were incubated for 48 hours and then washed and used for stimulation of human antigen-specific T cells. Results are expressed in pg of IFN-γ per 5×10^5 T cells/ml. DC only=<0.73 pg/ml."}, "[6]": {"details": "level compared with the native epitope"}, "[7]": {"details": "CTLs at IVS5, effector-to-target ratio 25:1"}, "[8]": {"details": "compared to native counterparts"}}, "data": [{"sequence": "QLYNKPLCDV [E6-A3]", "values": [{"measurement": "T2A2 Binding", "setting": "HLA-A2 molecules; binding to HLA-A2", "value": "1,280"}, {"measurement": "A2 Binding", "setting": "HLA-A2 molecules; [6]", "value": "+"}, {"measurement": "IFN-γ", "setting": "CTL (T cells); CTL line stimulated by autologous B cells pulsed with corresponding HPV-16 E6 peptide", "value": 653, "unit": "pg/mL"}, {"measurement": "IFN-γ", "setting": "CTL (T cells); E6 CTL line, autologous B cells with NO peptide", "value": "<15.6", "unit": "pg/mL"}, {"measurement": "% specific lysis (SD), CaSki (HLA-A2+ HPV E6+ and E7+)", "setting": "[1]; [7]", "value": "49.1 (11.9) %"}, {"measurement": "lysis of CaSki cervical carcinoma cells (in words)", "setting": "[1]; compared to T cells generated with the native epitope counterpart", "value": "Enhanced lysis"}, {"measurement": "Lysis", "setting": "[1]; [6]", "value": "+"}, {"measurement": "% specific lysis (SD), ASPC-1 (HLA-A2neg HPV E6neg and E7neg)", "setting": "[2]; Table 4", "value": "0.3 (0.9) %"}, {"measurement": "% specific lysis (SD), ASPC-1", "setting": "[2]; Table 5", "value": "0.5 (0.8) %"}, {"measurement": "% specific lysis (SD), HN-4", "setting": "[3]; [7]", "value": "30.6 (5.3) %"}, {"measurement": "lysis of HN-4 (in words)", "setting": "[3]; [8]", "value": "more lysis"}, {"measurement": "% specific lysis (SD), HN-12", "setting": "[4]; [7]", "value": "38.4 (7.5) %"}, {"measurement": "lysis of HN-12 (in words)", "setting": "[4]; [8]", "value": "more lysis"}, {"measurement": "IFN-γ", "setting": "[5]; DCs infected with Ad5 [E1,E2b]-HPV (20,000 MOI)", "value": "452 pg of IFN-γ per 5×10^5 T cells/ml"}, {"measurement": "IFN-γ", "setting": "[5]; DCs infected with Ad5 [E1,E2b]-Null (20,000 MOI)", "value": "0.78 pg of IFN-γ per 5×10^5 T cells/ml"}, {"measurement": "IFN-γ", "setting": "[5]; DCs only (uninfected)", "value": "8.06 pg of IFN-γ per 5×10^5 T cells/ml"}, {"measurement": "IFN-γ", "setting": "[5]; No DCs", "value": "0.9 pg of IFN-γ per 5×10^5 T cells/ml"}, {"measurement": "activation of T cells directed against the epitope (in words)", "setting": "[5]; human DCs infected with Ad-5[E1,E2b^neg]HPV", "value": "able to activate"}]}]}
